Values quoted from earlier work as cited in patent US11530415B2, “Genetically engineered Streptomyces capable of thaxtomin production in the absence of thaxtomin-inducing conditions and methods of producing thaxtomin” (University of Florida Research Foundation, Inc., priority 2017, dated 2022).

Test system: cellulose biosynthesis
Details: background statement, no method given

CN1C(=O)[C@](O)(Cc2cccc(O)c2)N(C)C(=O)[C@@H]1Cc1c[nH]c2cccc([N+](=O)[O-])c12 [Thaxtomin A, thaxtomin A]
potency in inhibiting cellulose biosynthesis: excellent potency (in an nM range)
